The source of these data is patent US20220175761A1, “BI-LIGAND DRUG CONJUGATE AND USE THEREOF” (COHERENT BIOPHARMA (SUZHOU), LIMITED, priority 2019, published 2022).

One series concerns LU0367. Kind of series: Tumor growth inhibition in HuPrime xenograft lung cancer PDX model. In kind it is in vivo, BALB/c-nude mice. As to conditions: 3 mg/kg, tail vein. The protocol:
(§1) Experimental scheme: The tumor tissue mass were prepared and subcutaneously inoculated into the anterior right flank of BALB/c-nude mice. When the tumor volume expanded to 80-160 mm^3, a randomized grouping was performed, and a model control group and administration groups were set. The mice were administrated from the first day of grouping, wherein the administration dose was adjusted according to the latest weight measurement. The mice were administrated via tail vein injection at an administration volume of 10 μl/g and an administration dosage of 3 mg/kg. After grouping and administration, the effects of tumor growth and treatment on normal behaviors of animals, specifically including the activity of experimental animals, food intake and drinking status, weight gain or loss status, and other abnormal conditions in eyes, hair, etc., were monitored. After grouping and administration, the weight of mice was measured twice a week to calculate the rate of weight change; at the same time, the long diameter and short diameter of the tumor were measured with a vernier caliper, and the tumor volume, relative tumor proliferation rate, tumor volume inhibition rate and other indicators were calculated. The formula of tumor volume is TV=0.5 a×b^2, wherein a is the long diameter of a tumor and b is the short diameter of a tumor.

For the next series, the system named is LU1206. Described as above. The format is in vivo, BALB/c-nude mice. As to conditions: 3 mg/kg, tail vein. The protocol:
as §1

Another series deals with LU1380. The description is as above. The format is in vivo, BALB/c-nude mice. To be noted: 3 mg/kg, tail vein. The method, then:
as §1

A short description of series [1]: Body weight and clinical observation in the LU1206 study. To be noted: 0.375 mg/kg on day 1, 8, 15.
Method: BALB/c nude mice bore tumors subcutaneously and, when the tumor volume reached about 150 mm^3, were grouped into: low-dose, medium-dose and high-dose test sample groups, a small molecule MMAE control group, a targeting polypeptide 20BK-SM09 control group, and a blank control group (a total of 6 groups, and 8 mice per group); the mice were administered on day 1, day 8 and day 15 after the grouping; and the observation was continued for 14 days after the last administration.
Series [2] relates to NCI-H226 (human lung cancer cells). Kind of series: Inhibition of cell line proliferation, CCK8. To be noted: NCI-H226, 68-72 hours, CCK8. In kind it is cell-based.
The test system of series [3] is SK-BR-3 (human breast cancer cells). Kind of series: Inhibition of cell line proliferation, CCK8. The format is cell-based. To be noted: SK-BR-3, 68-72 hours, CCK8. The method, then: Experimental operations: LNCaP, SK-BR-3, NCI-H226, CFPAC-1 and PANC-1 cells were prepared in advance and counted; with a culture medium (IMDM+10% FBS+1× L-Glutamine+1×P/S), the cells LNCaP, SK-BR-3 and CFPAC-1 were diluted to 4×10^4 cells/ml, NCI-H226 was diluted to 2.0×10^4 cells/ml and PANC-1 was diluted to 3.0×10^4 cells/ml; the diluted cell solution was plated in 96-well plates at 100 μl/well; and negative control and blank control wells were set on each plate. After adherent cell culture overnight, the diluted samples to be tested were added at 50 μl/well. The plates were placed in an incubator at 37° C., 5% CO2 and cultured for 68-72 hours. To each well, 15 μl (10% of the liquid volume in a well) of a color developing solution from CCK8 was added; and the plates were incubated at 37° C. for 45-70 minutes and each plate was read at 450 nm on a microplate reader. The data was edited using SoftMax Pro and a 4-P fitting curve was plotted.
Experimental Operations: LNCaP, SK-BR-3, MDA-MB-468 and CFPAC-1 cells were prepared in advance and counted; with a culture medium (IMDM+10% FBS+1× L-Glutamine+1×P/S), the cells LNCaP, SK-BR-3, MDA-MB-468 and CFPAC-1 were diluted to 4×10^4 cells/ml; the diluted cell solution was plated in 96-well plates at 100 µl/well; and negative control and blank control wells were set on each plate. After adherent cell culture overnight, the diluted samples to be tested were added at 50 μl/well. The plates were placed in an incubator at 37° C., 5% CO2 and cultured for 68-72 hours. To each well, 15 μl (10% of the liquid volume in a well) of a color developing solution from CCK8 was added; and the plates were incubated at 37° C. for 45-70 minutes and each plate was read at 450 nm on a microplate reader. The data was edited using SoftMax Pro and a 4-P fitting curve was plotted.

The nature of series [4]: Body weight and clinical observation in the LU2505 study. The format is in vivo, BALB/c nude mice. As to conditions: 0.375 mg/kg on day 1, 8, 15, D22. From the text: (§2) The active substance of test sample CBP-1018 is CB-20BK, which is obtained by mixing CB-20BK with auxiliary materials and then lyophilizing same.
Series [5] deals with lung cancer PDX model LU2505. Kind of series: Effectiveness in lung cancer LU2505 model (PDX model). In kind it is in vivo, BALB/c nude mice.
From the text: as §2

The mark [6] stands for this setting: 0.375 mg/kg on day 1, 8, 15, D22.

Square brackets hold non-standard residues; d marks the D form. Peptide text beside a SMILES is read from it. * marks the point of attachment. Dolaproine = CO[C@@H]([C@@H]1CCCN1)[C@@H](C)C(=O)O; Dil = CC[C@H](C)[C@H](NC)[C@@H](CC(=O)O)OC; X1 = C[C@@H](N*)[C@@H](O)c1ccccc1; NMeV = CN[C@H](C(=O)O)C(C)C

The TGI is how far tumour growth fell short of that in controls. Higher therefore signals a stronger effect on the tumour. `CC[C@H](C)[C@@H]([C@@H](CC(=O)N1CCC[C@H]1[C@H](OC)[C@@H](C)C(=O)N[C@H](C)[C@@H](O)c1ccccc1)OC)N(C)C(=O)[C@@H](NC(=O)[C@H](C(C)C)N(C)C(=O)OCc1ccc(NC(=O)C(CCCNC(N)=O)NC(=O)[C@@H](NC(=O)CCCCCN2C(=O)CC(SC[C@H](NC(=O)[C@H](CCCCN)NC(=O)[C@H](CC(=O)O)NC(=O)[C@H](CC(=O)O)NC(=O)Cc3ccc(CNC(=O)NCCCC[C@H](NC(=O)N[C@@H](CCC(=O)O)C(=O)O)C(=O)O)cc3)C(=O)N[C@@H](CCCCNC(=O)CC[C@H](NC(=O)c3ccc(NCc4cnc5[nH]c(N)nc(=O)c5n4)cc3)C(=O)O)C(N)=O)C2=O)C(C)C)cc1)C(C)C` (some centres unmarked) [CB-20BK]: the TGI in the series on LU0367 was 71.34%; with LU1206 it was 90.89%; in the series with LU1380 it was 30.02%.
As usually defined, the IC50 is the concentration needed to halve the response being measured. Low readings indicate greater potency in that assay, high ones weaker potency in that assay. As for `CC[C@H](C)[C@@H]([C@@H](CC(=O)N1CCC[C@H]1[C@H](OC)[C@@H](C)C(=O)N[C@H](C)[C@@H](O)c1ccccc1)OC)N(C)C(=O)[C@@H](NC(=O)[C@@H](NC)C(C)C)C(C)C` [MMAE, monomethyl auristatin E] (H-[NMeV]V[Dil][Dolaproine]-X1), the figures for the Weight in series [1] and in series [4] were 23.6 g and 23.5 g, respectively. For the same compound, the IC50 stood at 6 nM in series [2] and 2 nM in series [3]. The “tumor growth inhibition effect (in words)” value in series [5] (0.375 mg/kg) is listed as “clear tumor growth inhibition effect”. In addition, the “Tumor growth inhibition rate TGI %” value in series [5] (setting [6]) is listed as 48.97%. Moreover, in series [5] (setting [6]), the Tumor volume turned out to be 1132.61 mm^3. The Tumor weight in series [5] (0.375 mg/kg on day 1, 8, 15, D29) is reported as 1597.1 (D29) mg.
